For 57 molecules, IC50 results are on record in PubChem BioAssay AID2834 (Southern Research Specialized Biocontainment Screening …, 2010).

Structures are written as SMILES. Active and inactive are the calls of the source.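 Rule for the calls: active = more than 40% inhibition of the growth reporter signal at one or more tested doses; inactive = below 40% inhibition at every dose.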 A value given as a limit tells only on which side of the number the result lay.

Usually IC50 stands for the midpoint of a concentration-inhibition curve.

In the experiment the test system is S. Typhimurium nmpC-GFP reporter (non-PhoP growth counter-screen), low Mg2+, 4 h. Put plainly: non-PhoP GFP expression and growth suppression – purified and synthesized compounds, set 2, counter-screen for PhoP regulon inhibitor project, dose response (AID 2834). (In general: Counterscreens check selectivity or assay interference.)
As to `CCOc1ccc(NC(=S)N2CCN(c3cc4c(cc3F)c(=O)c(C(=O)O)cn4CC)CC2)cc1`, the IC50 was > 150 µM (inactive).

For the molecule `COc1c(N2CCN(C(=S)NCc3ccccc3)C(C)C2)c(F)cc2c(=O)c(C(=O)O)cn(C3CC3)c12` (configuration not stated), the IC50 was less than 0.15 µM.

For `O=C(NCc1ccccc1)N1CCCN(Cc2ccccc2F)C1`, the IC50 was > 150 µM (inactive).

Take `CSc1nc2cc(Oc3cccc(Cl)c3Cl)c(Cl)cc2[nH]1`: the 50% inhibitory concentration (IC50) is less than 0.15 µM.

In the case of `CCn1cc(C(=O)O)c(=O)c2cc(F)c(N3CCN(C(=S)Nc4ccccc4C(F)(F)F)CC3)cc21`, the IC50 was 76.4 µM.

Consider `CCn1cc(C(=O)O)c(=O)c2cc(F)c(N3CCN(C(=S)Nc4ccc(Cl)cc4)CC3)cc21`, for which the IC50 was 131 µM.

In the case of `Cc1cccc(NC(=S)NCc2ccc(Cl)cc2)c1`, the IC50 is > 150 µM (inactive).

Take `CCn1cc(C(=O)O)c(=O)c2cc(F)c(N3CCN(C(=S)NCc4ccccc4)CC3)cc21`: the IC50 was > 150 µM (inactive).

Regarding `CCn1cc(C(=O)O)c(=O)c2cc(F)c(N3CCN(C(=S)Nc4ccccc4C)CC3)cc21`, the IC50 is > 150 µM (inactive).

Regarding `Cc1ccc(CN2CCCN(C(=O)Nc3ccc(Cl)cc3)C2)cc1`, the IC50 is > 150 µM (inactive).

In the case of `O=C1C2=C(Nc3ccccc3SC2c2ccccc2Br)c2ccccc21` (configuration not stated), the IC50 is > 150 µM (inactive).

Regarding `O=C1c2ccccc2C2=Nc3ccccc3SC(c3ccccc3F)C12` (configuration not stated), the IC50 was less than 0.15 µM.

With `Cc1ccc(NC(=S)NCc2ccc(Cl)cc2)cc1`, the IC50 was > 150 µM (inactive).

Turning to `O=C(Nc1nnc(-c2cccs2)o1)c1cccc(C(F)(F)F)c1`, the IC50 was less than 0.15 µM.

Regarding `S=C(NCc1ccc(Cl)cc1)Nc1ccc(Br)cc1`, the IC50 is > 150 µM (inactive).

With `O=C(Nc1ccccc1)N1CCCN(Cc2ccc(F)cc2)C1`, the IC50 is > 150 µM (inactive).

With `COc1ccc(NC(=O)c2cc(Br)c(Br)s2)cn1`, the IC50 was less than 0.15 µM.

With `O=c1c2ccccc2[nH]c2ccc(F)cc12`, the IC50 was less than 0.15 µM.

As for `O=C(Nc1ccccc1Cl)N1CCCN(Cc2ccccc2F)C1`, the IC50 was > 150 µM (inactive).

Take `S=C(NCc1ccc(Cl)cc1)Nc1ccc(Cl)cc1`: the IC50 was > 150 µM (inactive).

As for `CCCCn1c(NS(=O)(=O)c2ccccc2)c(S(=O)(=O)c2ccc(C)cc2)c2nc3ccccc3nc21`, the IC50 was less than 0.15 µM.

On to `COc1cccc(NC(=S)NCc2ccc(Cl)cc2)c1`, for which the IC50 is > 150 µM (inactive).

On to `COc1ccc(NC(=S)NCc2ccc(Cl)cc2)cc1`, for which the IC50 is > 150 µM (inactive).

Consider `Cc1ccc(Nc2cc(C)c3c(O)cccc3n2)cc1C`, for which the IC50 is less than 0.15 µM.

In the case of `S=C(NCc1ccccc1Cl)Nc1ccncc1`, the IC50 was > 150 µM (inactive).

`CCn1cc(C(=O)O)c(=O)c2cc(F)c(N3CCN(C(=S)NC(=O)c4ccccc4F)CC3)cc21`: the IC50 was less than 0.15 µM.

Take `CN1CCc2nc(SCC(=O)Nc3cccc(F)c3)c(C#N)c(-c3cccs3)c2C1`: the IC50 is less than 0.15 µM.

Regarding `C1=C(CCNc2ncnc3c2[nH]c2ccccc23)CCCC1`, the IC50 is less than 0.15 µM.

`O=C(Nc1cccnc1)c1cc(Br)c(Br)s1`: the IC50 was less than 0.15 µM.

For `COc1ccccc1Nc1nc(NCc2ccco2)c2ccccc2n1`, the IC50 was less than 0.15 µM.

With `CN(C)CCCN(C(=O)CCc1ccccc1)c1nc2ccc(Cl)cc2s1`, the IC50 was less than 0.15 µM.

Consider `O=C(Nc1ccc(Cl)cc1)N1CCCN(Cc2ccccc2F)C1`, for which the IC50 is less than 0.15 µM.

Take `CCCCCNC(=O)c1cn(CC)c2cc(N3CCN(C)CC3)c(F)cc2c1=O`: the IC50 was less than 0.15 µM.

Take `O=C1C2=C(Nc3ccccc3SC2c2ccco2)c2ccccc21` (configuration not stated): the IC50 is less than 0.15 µM.

`O=C1C2=C(Nc3ccccc3SC2c2ccsc2)c2ccccc21` (configuration not stated): the IC50 is > 150 µM (inactive).

For `O=C1C2=C(Nc3ccccc3SC2c2ccc(C(F)(F)F)cc2)c2ccccc21` (configuration not stated), the IC50 was > 150 µM (inactive).

As to `CCn1cc(C(=O)O)c(=O)c2cc(F)c(N3CCN(C(=S)NC)CC3)cc21`, the IC50 was > 150 µM (inactive).

On to `CN1CCN(C2=Cc3cc(Cl)ccc3Sc3cc(F)ccc32)CC1`, for which the IC50 is less than 0.15 µM.

As for `CCn1cc(C(=O)O)c(=O)c2cc(F)c(N3CCN(C(=S)NC(=O)c4ccccc4Cl)CC3)cc21`, the 50% inhibitory concentration (IC50) was less than 0.15 µM.

As for `Fc1ccccc1NC(=S)NCc1ccc(Cl)cc1`, the IC50 was > 150 µM (inactive).

Take `COc1ccccc1NC(=O)N1CCCN(Cc2ccccc2F)C1`: the IC50 is > 150 µM (inactive).

As for `CCCCn1c(NS(=O)(=O)c2ccc(C)cc2)c(S(=O)(=O)c2ccccc2)c2nc3ccccc3nc21`, the IC50 is less than 0.15 µM.

As for `O=C1C2=C(Nc3ccccc3SC2c2cccc(Cl)c2)c2ccccc21` (configuration not stated), the IC50 was > 150 µM (inactive).

For the molecule `N#C/C(=C\c1ccc[nH]1)C(=O)NC1CC1`, the IC50 was less than 0.15 µM.

Consider `O=C1C2=C(Nc3ccccc3SC2c2ccccc2C(F)(F)F)c2ccccc21` (configuration not stated), for which the IC50 is > 150 µM (inactive).

As to `O=C(O)c1cn(-c2ccc(F)cc2)c2cc(Cl)c(F)cc2c1=O`, the IC50 is less than 0.15 µM.

On to `O=C(Nc1ccc(Br)cc1)N1CCCN(Cc2ccccc2F)C1`, for which the IC50 is > 150 µM (inactive).

Turning to `S=C(NCc1ccc(Cl)cc1)Nc1cccnc1`, the IC50 was > 150 µM (inactive).

As to `S=C(NCc1ccc(Cl)cc1)Nc1cccc(Cl)c1`, the IC50 was > 150 µM (inactive).

As to `CCn1cc(C(=O)O)c(=O)c2cc(F)c(N3CCN(C(=S)Nc4ccccc4Cl)CC3)cc21`, the IC50 was > 150 µM (inactive).

For `O=C(Nc1ccccc1)N1CCCN(Cc2ccccc2F)C1`, the IC50 was > 150 µM (inactive).

Take `O=C1C2=C(Nc3ccccc3SC2c2ccccc2Cl)c2ccccc21` (configuration not stated): the IC50 was > 150 µM (inactive).

In the case of `O=[N+]([O-])c1ccc(CNC2CCCc3ccccc32)cc1` (configuration not stated), the IC50 was less than 0.15 µM.

Regarding `COc1cccc(C2Sc3ccccc3NC3=C2C(=O)c2ccccc23)c1` (configuration not stated), the IC50 was > 150 µM (inactive).

Turning to `O=S(=O)(Nc1c(S(=O)(=O)c2ccccc2)c2nc3ccccc3nc2n1C1CCCCC1)c1ccccc1`, the IC50 is less than 0.15 µM.

Regarding `COc1ccc(CNC(=S)Nc2ccncc2)cc1`, the IC50 was > 150 µM (inactive).

In the case of `O=C(Nc1ccc(Cl)cc1)N1CCCN(Cc2ccc(F)cc2)C1`, the IC50 was > 150 µM (inactive).
